Reference: the kinase profiling compilation of Christmann-Franck et al. (2016)

How the values were obtained:
Test in all cases: KINOMEscan competition binding
Conditions in all cases: compound 10.0 µM
EPHA4 (human) = EPHA4 (human) (UniProt P54764)
NLK (human) = NLK (human) (UniProt Q9UBE8)
CDKL5 (human) = CDKL5 (human) (UniProt O76039)
AKT1 (human) = AKT1 (human) (UniProt P31749)
TAOK1 (human) = TAOK1 (human) (UniProt Q7L7X3)
MAP3K2 (human) = MAP3K2 (human) (UniProt Q9Y2U5)
ERBB3 (human) = ERBB3 (human) (UniProt P21860)
ACVR1B (human) = ACVR1B (human) (UniProt P36896)
EPHA3 (human) = EPHA3 (human) (UniProt P29320)
SLK (human) = SLK (human) (UniProt Q9H2G2)
MAPK7 (human) = MAPK7 (human) (UniProt Q13164)
[1] = test system: RET (human), P07949 [M918T]
SYK (human) = SYK (human) (UniProt P43405)
CDC42BPG (human) = CDC42BPG (human) (UniProt Q6DT37)
FLT1 (human) = FLT1 (human) (UniProt P17948)
[2] = test system: ABL1 (human), P00519 [Y253F]
STK25 (human) = STK25 (human) (UniProt O00506)
MAP3K15 (human) = MAP3K15 (human) (UniProt Q6ZN16)
CLK2 (human) = CLK2 (human) (UniProt P49760)
STK35 (human) = STK35 (human) (UniProt Q8TDR2)
NTRK3 (human) = NTRK3 (human) (UniProt Q16288)
CDC2L2 (human) = CDC2L2 (human) (UniProt Q9UQ88)
DMPK (human) = DMPK (human) (UniProt Q09013)
MAP4K5 (human) = MAP4K5 (human) (UniProt Q9Y4K4)
IKBKB (human) = IKBKB (human) (UniProt O14920)
MYLK (human) = MYLK (human) (UniProt Q15746)
RIOK1 (human) = RIOK1 (human) (UniProt Q9BRS2)
PIK3CD (human) = PIK3CD (human) (UniProt O00329)
CDK15 (human) = CDK15 (human) (UniProt Q96Q40)
PIP5K1C (human) = PIP5K1C (human) (UniProt O60331)
GRK4 (human) = GRK4 (human) (UniProt P32298)
PLK2 (human) = PLK2 (human) (UniProt Q9NYY3)
CSNK1A1L (human) = CSNK1A1L (human) (UniProt Q8N752)
CHEK1 (human) = CHEK1 (human) (UniProt O14757)
MARK4 (human) = MARK4 (human) (UniProt Q96L34)
MAP3K13 (human) = MAP3K13 (human) (UniProt O43283)
FGFR3 (human) = FGFR3 (human) (UniProt P22607)
MAPKAPK2 (human) = MAPKAPK2 (human) (UniProt P49137)
EPHB3 (human) = EPHB3 (human) (UniProt P54753)
RPS6KA1 KD2 (human) = RPS6KA1 KD2 (human) (UniProt Q15418)

Chain of CLK2 (human) (P49760 whole entry, looked up): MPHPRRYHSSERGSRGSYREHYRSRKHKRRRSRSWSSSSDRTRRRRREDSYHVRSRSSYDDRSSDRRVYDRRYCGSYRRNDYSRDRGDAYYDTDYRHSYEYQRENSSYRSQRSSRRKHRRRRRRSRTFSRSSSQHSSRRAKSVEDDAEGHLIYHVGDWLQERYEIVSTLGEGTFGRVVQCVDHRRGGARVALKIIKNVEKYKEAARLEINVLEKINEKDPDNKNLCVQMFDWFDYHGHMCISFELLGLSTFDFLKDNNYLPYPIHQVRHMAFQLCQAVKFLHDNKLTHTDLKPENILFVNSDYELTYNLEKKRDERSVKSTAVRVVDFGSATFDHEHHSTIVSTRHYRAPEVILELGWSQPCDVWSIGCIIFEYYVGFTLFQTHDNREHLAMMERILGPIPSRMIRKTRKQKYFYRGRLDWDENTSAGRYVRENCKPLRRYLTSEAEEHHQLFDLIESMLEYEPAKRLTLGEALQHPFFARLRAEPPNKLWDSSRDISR
Chain of CDC42BPG (human) (Q6DT37 whole entry, looked up): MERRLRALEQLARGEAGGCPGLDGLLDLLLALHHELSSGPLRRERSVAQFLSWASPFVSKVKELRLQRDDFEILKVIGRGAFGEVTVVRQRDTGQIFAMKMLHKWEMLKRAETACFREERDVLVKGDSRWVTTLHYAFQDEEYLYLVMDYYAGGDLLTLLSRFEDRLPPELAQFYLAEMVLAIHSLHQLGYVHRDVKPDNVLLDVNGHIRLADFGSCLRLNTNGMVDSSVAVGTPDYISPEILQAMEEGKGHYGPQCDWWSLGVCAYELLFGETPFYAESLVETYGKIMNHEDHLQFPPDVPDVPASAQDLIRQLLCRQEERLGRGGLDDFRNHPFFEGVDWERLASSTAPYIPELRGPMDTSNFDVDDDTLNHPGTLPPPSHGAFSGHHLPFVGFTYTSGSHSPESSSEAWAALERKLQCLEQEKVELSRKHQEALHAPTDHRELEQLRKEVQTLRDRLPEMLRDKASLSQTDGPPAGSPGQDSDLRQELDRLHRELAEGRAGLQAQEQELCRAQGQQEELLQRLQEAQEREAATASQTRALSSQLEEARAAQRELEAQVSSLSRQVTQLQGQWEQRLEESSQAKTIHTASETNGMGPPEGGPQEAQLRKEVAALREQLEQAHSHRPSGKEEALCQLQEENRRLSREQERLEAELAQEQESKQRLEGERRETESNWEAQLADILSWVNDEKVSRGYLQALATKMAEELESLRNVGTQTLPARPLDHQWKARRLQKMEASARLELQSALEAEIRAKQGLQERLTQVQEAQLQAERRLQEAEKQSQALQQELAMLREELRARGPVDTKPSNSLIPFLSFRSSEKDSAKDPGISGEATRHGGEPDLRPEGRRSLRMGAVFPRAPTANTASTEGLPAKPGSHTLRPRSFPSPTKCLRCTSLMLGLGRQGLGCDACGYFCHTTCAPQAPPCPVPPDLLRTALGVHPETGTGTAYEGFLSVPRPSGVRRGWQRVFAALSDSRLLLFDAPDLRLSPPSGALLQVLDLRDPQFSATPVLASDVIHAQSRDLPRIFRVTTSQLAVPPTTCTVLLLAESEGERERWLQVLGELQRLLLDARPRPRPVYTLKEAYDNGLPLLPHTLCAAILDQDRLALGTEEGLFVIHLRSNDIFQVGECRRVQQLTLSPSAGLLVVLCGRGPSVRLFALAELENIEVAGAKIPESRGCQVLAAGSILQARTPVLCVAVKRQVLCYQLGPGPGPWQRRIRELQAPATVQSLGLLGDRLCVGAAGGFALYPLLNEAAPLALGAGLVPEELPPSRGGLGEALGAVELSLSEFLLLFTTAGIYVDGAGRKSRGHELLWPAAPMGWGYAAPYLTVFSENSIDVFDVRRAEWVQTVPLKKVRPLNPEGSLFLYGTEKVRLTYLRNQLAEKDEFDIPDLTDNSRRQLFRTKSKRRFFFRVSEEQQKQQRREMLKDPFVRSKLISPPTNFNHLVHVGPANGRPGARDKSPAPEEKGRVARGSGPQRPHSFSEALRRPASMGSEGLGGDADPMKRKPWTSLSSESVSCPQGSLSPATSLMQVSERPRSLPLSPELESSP
Chain of EPHA3 (human) (P29320 whole entry, looked up): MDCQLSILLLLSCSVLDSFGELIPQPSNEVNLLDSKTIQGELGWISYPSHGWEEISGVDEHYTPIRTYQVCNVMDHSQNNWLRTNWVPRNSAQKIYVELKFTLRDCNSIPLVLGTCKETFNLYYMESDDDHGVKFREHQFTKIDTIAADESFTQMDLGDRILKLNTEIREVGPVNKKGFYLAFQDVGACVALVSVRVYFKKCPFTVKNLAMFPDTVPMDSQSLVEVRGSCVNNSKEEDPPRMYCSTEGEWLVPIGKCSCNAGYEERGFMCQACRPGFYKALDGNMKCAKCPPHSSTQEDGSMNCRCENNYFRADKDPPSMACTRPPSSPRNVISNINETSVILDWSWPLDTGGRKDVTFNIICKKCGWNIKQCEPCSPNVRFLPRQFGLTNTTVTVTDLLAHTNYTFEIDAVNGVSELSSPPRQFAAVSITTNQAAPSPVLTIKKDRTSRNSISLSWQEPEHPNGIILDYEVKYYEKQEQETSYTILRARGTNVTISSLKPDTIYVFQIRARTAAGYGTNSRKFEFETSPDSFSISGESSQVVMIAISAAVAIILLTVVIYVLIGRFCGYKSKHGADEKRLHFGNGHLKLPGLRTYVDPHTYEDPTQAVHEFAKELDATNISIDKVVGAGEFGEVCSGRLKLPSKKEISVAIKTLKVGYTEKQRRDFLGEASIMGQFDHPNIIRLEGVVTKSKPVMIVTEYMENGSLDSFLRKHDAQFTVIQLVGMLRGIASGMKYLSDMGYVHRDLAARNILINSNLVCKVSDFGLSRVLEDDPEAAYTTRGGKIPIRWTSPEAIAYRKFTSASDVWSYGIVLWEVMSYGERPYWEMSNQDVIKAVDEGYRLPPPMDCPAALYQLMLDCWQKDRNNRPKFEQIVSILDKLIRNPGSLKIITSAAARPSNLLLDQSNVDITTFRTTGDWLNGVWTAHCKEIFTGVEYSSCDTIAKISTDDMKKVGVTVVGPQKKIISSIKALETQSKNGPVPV
Chain of PLK2 (human) (Q9NYY3 whole entry, looked up): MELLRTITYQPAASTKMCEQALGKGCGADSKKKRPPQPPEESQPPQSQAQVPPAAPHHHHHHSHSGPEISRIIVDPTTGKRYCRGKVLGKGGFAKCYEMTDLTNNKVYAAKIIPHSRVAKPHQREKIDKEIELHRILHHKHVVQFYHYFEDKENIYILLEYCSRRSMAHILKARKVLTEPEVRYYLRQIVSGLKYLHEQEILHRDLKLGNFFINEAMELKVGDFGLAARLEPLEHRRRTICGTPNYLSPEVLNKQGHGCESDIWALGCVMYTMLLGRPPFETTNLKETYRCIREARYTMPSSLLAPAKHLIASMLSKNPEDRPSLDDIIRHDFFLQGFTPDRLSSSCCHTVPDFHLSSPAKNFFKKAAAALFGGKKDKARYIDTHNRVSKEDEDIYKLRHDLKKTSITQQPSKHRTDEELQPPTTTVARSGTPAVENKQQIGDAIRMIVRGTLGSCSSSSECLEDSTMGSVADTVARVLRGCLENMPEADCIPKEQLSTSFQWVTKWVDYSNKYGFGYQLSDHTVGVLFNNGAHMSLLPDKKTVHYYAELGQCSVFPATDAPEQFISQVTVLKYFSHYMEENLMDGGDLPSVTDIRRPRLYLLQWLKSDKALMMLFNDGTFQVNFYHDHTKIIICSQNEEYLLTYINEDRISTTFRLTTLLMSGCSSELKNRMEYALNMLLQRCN
Chain of MAP3K13 (human) (O43283 whole entry, looked up): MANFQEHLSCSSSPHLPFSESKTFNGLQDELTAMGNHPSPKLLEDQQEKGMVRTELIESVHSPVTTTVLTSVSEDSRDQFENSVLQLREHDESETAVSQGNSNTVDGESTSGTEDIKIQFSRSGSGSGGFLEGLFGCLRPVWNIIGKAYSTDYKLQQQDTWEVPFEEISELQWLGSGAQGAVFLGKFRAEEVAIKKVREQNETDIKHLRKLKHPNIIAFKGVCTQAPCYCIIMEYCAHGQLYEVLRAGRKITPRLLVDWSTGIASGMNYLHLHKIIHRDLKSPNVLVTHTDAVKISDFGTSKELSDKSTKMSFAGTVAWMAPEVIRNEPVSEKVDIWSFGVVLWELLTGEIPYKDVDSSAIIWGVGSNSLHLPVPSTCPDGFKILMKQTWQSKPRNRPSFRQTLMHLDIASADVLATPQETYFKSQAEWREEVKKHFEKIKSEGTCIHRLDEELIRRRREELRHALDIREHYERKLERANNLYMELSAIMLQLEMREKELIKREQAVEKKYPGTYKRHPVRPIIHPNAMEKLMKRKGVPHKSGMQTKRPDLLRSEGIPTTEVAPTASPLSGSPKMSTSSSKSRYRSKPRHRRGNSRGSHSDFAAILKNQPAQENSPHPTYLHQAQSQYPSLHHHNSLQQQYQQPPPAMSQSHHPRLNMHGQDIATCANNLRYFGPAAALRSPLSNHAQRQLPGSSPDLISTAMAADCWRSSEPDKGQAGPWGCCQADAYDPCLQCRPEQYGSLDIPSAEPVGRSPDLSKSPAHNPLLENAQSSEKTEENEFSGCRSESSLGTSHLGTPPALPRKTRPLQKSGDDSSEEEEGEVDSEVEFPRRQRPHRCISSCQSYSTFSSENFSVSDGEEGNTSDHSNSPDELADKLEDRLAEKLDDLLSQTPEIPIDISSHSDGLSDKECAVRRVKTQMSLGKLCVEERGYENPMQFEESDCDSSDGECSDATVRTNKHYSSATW
Chain of MAPKAPK2 (human) (P49137 whole entry, looked up): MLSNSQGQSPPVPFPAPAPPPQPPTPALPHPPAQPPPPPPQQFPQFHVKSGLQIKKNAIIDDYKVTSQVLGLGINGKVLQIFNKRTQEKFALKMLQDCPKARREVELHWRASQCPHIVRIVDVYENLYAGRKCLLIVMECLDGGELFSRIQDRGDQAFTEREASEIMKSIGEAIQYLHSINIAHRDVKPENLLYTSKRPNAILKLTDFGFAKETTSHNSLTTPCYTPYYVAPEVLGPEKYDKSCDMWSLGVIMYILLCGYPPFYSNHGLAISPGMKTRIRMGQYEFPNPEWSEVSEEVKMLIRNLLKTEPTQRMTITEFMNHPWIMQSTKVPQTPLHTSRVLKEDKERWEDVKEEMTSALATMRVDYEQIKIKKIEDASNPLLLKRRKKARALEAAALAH

| Compound | kinase still bound, per cent of control (EPHA4 (human)) [%] | kinase still bound, per cent of control (NLK (human)) [%] | kinase still bound, per cent of control (CDKL5 (human)) [%] | kinase still bound, per cent of control (AKT1 (human)) [%] | kinase still bound, per cent of control (TAOK1 (human)) [%] | kinase still bound, per cent of control (MAP3K2 (human)) [%] | kinase still bound, per cent of control (ERBB3 (human)) [%] | kinase still bound, per cent of control (ACVR1B (human)) [%] | kinase still bound, per cent of control (EPHA3 (human)) [%] | kinase still bound, per cent of control (SLK (human)) [%] | kinase still bound, per cent of control (MAPK7 (human)) [%] | kinase still bound, per cent of control [1] [%] | kinase still bound, per cent of control (SYK (human)) [%] | kinase still bound, per cent of control (CDC42BPG (human)) [%] | kinase still bound, per cent of control (FLT1 (human)) [%] | kinase still bound, per cent of control [2] [%] | kinase still bound, per cent of control (STK25 (human)) [%] | kinase still bound, per cent of control (MAP3K15 (human)) [%] | kinase still bound, per cent of control (CLK2 (human)) [%] | kinase still bound, per cent of control (STK35 (human)) [%] | further results |
| --- | --- | --- | --- | --- | --- | --- | --- | --- | --- | --- | --- | --- | --- | --- | --- | --- | --- | --- | --- | --- | --- |
| O=C1NC(=O)/C(=C/c2ccc3nccc(-c4ccncc4)c3c2)S1 | 96 | 84 | 76 | 90 | 3 | 90 | 88 | 51 | 75 | 0.3 | 59 | 93 | 62 | 90 | 73 | 68 | 75 | 100 | 0.15 | 49 | kinase still bound, per cent of control (NTRK3 (human)): 68%; kinase still bound, per cent of control (CDC2L2 (human)): 85%; kinase still bound, per cent of control (DMPK (human)): 2.9%; kinase still bound, per cent of control (MAP4K5 (human)): 41%; kinase still bound, per cent of control (IKBKB (human)): 34%; kinase still bound, per cent of control (MYLK (human)): 19%; kinase still bound, per cent of control (RIOK1 (human)): 1%; kinase still bound, per cent of control (PIK3CD (human)): 4.8%; kinase still bound, per cent of control (CDK15 (human)): 9.6%; kinase still bound, per cent of control (PIP5K1C (human)): 28%; kinase still bound, per cent of control (GRK4 (human)): 47%; kinase still bound, per cent of control (PLK2 (human)): 29%; kinase still bound, per cent of control (CSNK1A1L (human)): 55%; kinase still bound, per cent of control (CHEK1 (human)): 57%; kinase still bound, per cent of control (MARK4 (human)): 89%; kinase still bound, per cent of control (MAP3K13 (human)): 82%; kinase still bound, per cent of control (FGFR3 (human)): 100%; kinase still bound, per cent of control (MAPKAPK2 (human)): 74%; kinase still bound, per cent of control (EPHB3 (human)): 71%; kinase still bound, per cent of control (RPS6KA1 KD2 (human)): 19% |
| CN(C)C/C=C/C(=O)Nc1ccc(C(=O)Nc2cccc(Nc3nccc(-c4cccnc4)n3)c2)cc1 | 100 | 82 | 60 | 100 | 28 | 79 | 57 | 86 | 73 | 98 | 100 | 70 | 23 | 76 | 46 | 40 | 83 | 56 | 2.2 | 80 | kinase still bound, per cent of control (NTRK3 (human)): 65%; kinase still bound, per cent of control (CDC2L2 (human)): 100%; kinase still bound, per cent of control (DMPK (human)): 64%; kinase still bound, per cent of control (MAP4K5 (human)): 59%; kinase still bound, per cent of control (IKBKB (human)): 65%; kinase still bound, per cent of control (MYLK (human)): 64%; kinase still bound, per cent of control (RIOK1 (human)): 10%; kinase still bound, per cent of control (PIK3CD (human)): 91%; kinase still bound, per cent of control (CDK15 (human)): 100%; kinase still bound, per cent of control (PIP5K1C (human)): 20%; kinase still bound, per cent of control (GRK4 (human)): 29%; kinase still bound, per cent of control (PLK2 (human)): 81%; kinase still bound, per cent of control (CSNK1A1L (human)): 100%; kinase still bound, per cent of control (CHEK1 (human)): 100%; kinase still bound, per cent of control (MARK4 (human)): 26%; kinase still bound, per cent of control (MAP3K13 (human)): 100%; kinase still bound, per cent of control (FGFR3 (human)): 96%; kinase still bound, per cent of control (MAPKAPK2 (human)): 100%; kinase still bound, per cent of control (EPHB3 (human)): 75%; kinase still bound, per cent of control (RPS6KA1 KD2 (human)): 91% |
| CCN1CCN(C(=O)Cc2ccc(Nc3ncc(F)c(Nc4ccc(C(=O)Nc5ccccc5Cl)cc4)n3)cc2)CC1 | 83 | 98 | 100 | 100 | 62 | 31 | 45 | 45 | 62 | 0.2 | 100 | 0.55 | 33 | 66 | 9.6 | 16 | 35 | 100 | 4.9 | 91 | kinase still bound, per cent of control (NTRK3 (human)): 78%; kinase still bound, per cent of control (CDC2L2 (human)): 95%; kinase still bound, per cent of control (DMPK (human)): 100%; kinase still bound, per cent of control (MAP4K5 (human)): 64%; kinase still bound, per cent of control (IKBKB (human)): 27%; kinase still bound, per cent of control (MYLK (human)): 57%; kinase still bound, per cent of control (RIOK1 (human)): 0%; kinase still bound, per cent of control (PIK3CD (human)): 41%; kinase still bound, per cent of control (CDK15 (human)): 64%; kinase still bound, per cent of control (PIP5K1C (human)): 77%; kinase still bound, per cent of control (GRK4 (human)): 8.8%; kinase still bound, per cent of control (PLK2 (human)): 88%; kinase still bound, per cent of control (CSNK1A1L (human)): 100%; kinase still bound, per cent of control (CHEK1 (human)): 100%; kinase still bound, per cent of control (MARK4 (human)): 17%; kinase still bound, per cent of control (MAP3K13 (human)): 44%; kinase still bound, per cent of control (FGFR3 (human)): 20%; kinase still bound, per cent of control (MAPKAPK2 (human)): 100%; kinase still bound, per cent of control (EPHB3 (human)): 78%; kinase still bound, per cent of control (RPS6KA1 KD2 (human)): 45% |
